Data as given in article PMC7271629 (ACS chemical biology, 2020).

Key:
[1] = system: c-Myc expression in K562 chronic myelogenous leukemia cells; test: c-Myc expression in K562 cells; assay type: cell-based, human
[2] = system: BD1 and BD2 within a BET protein; conditions: cited from earlier work

SMILES | effect on c-Myc expression [1] | affinity of bivalent engagement of BD1 and BD2 [2]
Cc1sc2c(c1C)C(c1ccc(Cl)cc1)=N[C@@H](CC(=O)OC(C)(C)C)c1nnc(C)n1-2 [JQ1] | attenuated c-Myc expression | –
Cc1sc2c(c1C)C(c1ccc(Cl)cc1)=N[C@@H](CC(=O)NCCOCCOCCOCCOCCOCCOCCOCCNC(=O)C[C@@H]1N=C(c3ccc(Cl)cc3)c3c(sc(C)c3C)-n3c(C)nnc31)c1nnc(C)n1-2 [MT1] | – | subnanomolar
